# Measurements: patent publication US9302999B2, “Substituted triazoles as herbicides” (E. I. DU PONT DE NEMOURS AND COMPANY, priority 2012, dated 2016)
# Experiments:
# Assay type in all cases: in vivo
# [1] = tested on: goosegrass (Eleusine indica); assay: Test C pre-/postemergence: goosegrass
# Outline: (§1)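 Preemergence on seeds in loam/sand, postemergence on 2–18 cm (1–4-leaf) plants in peat-based medium; compounds in non-phytotoxic solvent with surfactant. After 13–15 days in greenhouse, visual rating versus controls, 0 (no effect) to 100 (complete control).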
# [2] = tested on: windgrass (Apera spica-venti); assay: Test C postemergence: windgrass
# Outline: (§2)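 Visual 0–100 injury score vs untreated controls (0 none, 100 complete control), taken 13–15 d after treatment. Postemergence spray on potted plants, 2–18 cm, 1–4 leaves; greenhouse.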
# [3] = tested on: woolly cupgrass (Eriochloa villosa); assay: Test C pre-/postemergence: woolly cupgrass
# Outline: as §1
# [4] = tested on: surinam grass (Brachiaria decumbens); assay: Test C pre-/postemergence: surinam grass
# Outline: as §1
# [5] = tested on: bromegrass, downy (downy bromegrass, Bromus tectorum); assay: Test C pre-/postemergence: bromegrass, downy
# Outline: as §1
# [6] = tested on: common (oilseed) sunflower (Helianthus annuus); assay: Test C pre-/postemergence: sunflower; details: Preemergence
# Outline: as §1
# [7] = tested on: cocklebur (common cocklebur, Xanthium strumarium); assay: Test C pre-/postemergence: cocklebur
# Outline: as §1
# [8] = tested on: deadnettle (henbit deadnettle, Lamium amplexicaule); assay: Test C postemergence: deadnettle
# Outline: as §2
# [9] = tested on: canarygrass (Phalaris minor); assay: Test C postemergence: canarygrass
# Outline: as §2
# [10] = tested on: bermudagrass (Cynodon dactylon); assay: Test C pre-/postemergence: bermudagrass
# Outline: as §1
# [11] = Postemergence, 31 g ai/ha, scale 0 to 100 (0 no effect, 100 complete control)
# [12] = Postemergence, 62 g ai/ha, scale 0 to 100 (0 no effect, 100 complete control)
# [13] = Postemergence, 125 g ai/ha, scale 0 to 100, 0 no effect, 100 complete control
# [14] = Postemergence, 250 g ai/ha, scale 0 to 100 (0 no effect, 100 complete control)
# [15] = Preemergence, 31 g ai/ha, scale 0 (no effect) to 100 (complete control)
# [16] = Preemergence, 62 g ai/ha, scale 0 to 100, 0 no effect, 100 complete control
# [17] = Preemergence, 125 g ai/ha, scale 0 to 100, 0 no effect, 100 complete control
# [18] = Preemergence, 250 g ai/ha, scale 0 to 100, 0 no effect, 100 complete control
# [19] = 31 g ai/ha, scale 0 to 100 (0 no effect, 100 complete control)
# [20] = 62 g ai/ha, scale 0 to 100 (0 no effect, 100 complete control)
# [21] = 125 g ai/ha, scale 0 to 100, 0 no effect, 100 complete control
# [22] = Postemergence, 250 g ai/ha, scale 0 to 100
# [23] = 250 g ai/ha, scale 0 to 100, 0 no effect, 100 complete control
# [24] = Preemergence, 31 g ai/ha, scale of 0 to 100, 0 is no effect, 100 is complete control
# [25] = Preemergence, 62 g ai/ha, scale of 0 to 100, 0 is no effect, 100 is complete control
structure (smiles),measurement,setting,value
"CCOc1nn(-c2ccc(F)cc2)nc1Cc1ccnc(C(F)(F)F)c1 [Compound 196, 4-[[5-ethoxy-2-(4-fluorophenyl)-2H-1,2,3-triazol-4-yl]methyl]-2-(trifluoromethyl)pyridine]","Plant response rating, Goosegrass",[1]; [11],75
same,"Plant response rating, Goosegrass",[1]; [12],75
same,"Plant response rating, Goosegrass",[1]; [13],80
same,"Plant response rating, Goosegrass",[1]; [14],85
same,"Plant response rating, Goosegrass",[1]; [15],100
same,"Plant response rating, Goosegrass",[1]; [16],100
same,"Plant response rating, Goosegrass",[1]; [17],100
same,"Plant response rating, Goosegrass",[1]; [18],100
same,"Plant response rating, Windgrass",[2]; [19],80
same,"Plant response rating, Windgrass",[2]; [20],80
same,"Plant response rating, Windgrass",[2]; [21],95
same,"Plant response rating, Windgrass","[2]; 250 g ai/ha, scale 0 to 100 (0 no effect, 100 complete control)",95
same,"Plant response rating, Cupgrass, Woolly",[3]; [11],30
same,"Plant response rating, Cupgrass, Woolly",[3]; [12],80
same,"Plant response rating, Cupgrass, Woolly",[3]; [13],85
same,"Plant response rating, Cupgrass, Woolly",[3]; [22],90
same,"Plant response rating, Cupgrass, Woolly",[3]; [15],90
same,"Plant response rating, Cupgrass, Woolly",[3]; [16],98
same,"Plant response rating, Cupgrass, Woolly",[3]; [17],100
same,"Plant response rating, Cupgrass, Woolly",[3]; [18],100
same,"Plant response rating, Surinam Grass",[4]; [11],35
same,"Plant response rating, Surinam Grass",[4]; [12],70
same,"Plant response rating, Surinam Grass",[4]; [13],70
same,"Plant response rating, Surinam Grass",[4]; [14],75
same,"Plant response rating, Surinam Grass",[4]; [15],90
same,"Plant response rating, Surinam Grass",[4]; [16],98
same,"Plant response rating, Surinam Grass",[4]; [17],100
same,"Plant response rating, Surinam Grass",[4]; [18],100
same,"Plant response rating, Bromegrass, Downy",[5]; [11],50
same,"Plant response rating, Bromegrass, Downy",[5]; [12],50
same,"Plant response rating, Bromegrass, Downy",[5]; [13],70
same,"Plant response rating, Bromegrass, Downy",[5]; [22],80
same,"Plant response rating, Bromegrass, Downy",[5]; [15],60
same,"Plant response rating, Bromegrass, Downy",[5]; [16],95
same,"Plant response rating, Bromegrass, Downy",[5]; [17],100
same,"Plant response rating, Bromegrass, Downy",[5]; [18],100
same,"Plant response rating, Sunflower","[6]; 31 g ai/ha, scale 0 (no effect) to 100 (complete control)",5
same,"Plant response rating, Sunflower","[6]; 62 g ai/ha, scale 0 to 100, 0 no effect, 100 complete control",20
same,"Plant response rating, Sunflower",[6]; [21],30
same,"Plant response rating, Sunflower",[6]; [23],40
same,"Plant response rating, Cocklebur",[7]; [11],55
same,"Plant response rating, Cocklebur",[7]; [12],60
same,"Plant response rating, Cocklebur",[7]; [13],65
same,"Plant response rating, Cocklebur",[7]; [22],75
same,"Plant response rating, Cocklebur",[7]; [15],5
same,"Plant response rating, Cocklebur",[7]; [17],45
same,"Plant response rating, Cocklebur",[7]; [18],75
same,"Plant response rating, Deadnettle",[8]; [19],100
same,"Plant response rating, Deadnettle",[8]; [20],100
same,"Plant response rating, Deadnettle",[8]; [21],100
same,"Plant response rating, Deadnettle","[8]; 250 g ai/ha, scale 0 to 100",100
same,"Plant response rating, Canarygrass",[9]; [19],80
same,"Plant response rating, Canarygrass",[9]; [20],90
same,"Plant response rating, Canarygrass",[9]; [21],90
same,"Plant response rating, Canarygrass","[9]; 250 g ai/ha, scale 0 to 100",90
same,"Plant response rating, Bermudagrass",[10]; [11],80
same,"Plant response rating, Bermudagrass",[10]; [12],80
same,"Plant response rating, Bermudagrass",[10]; [13],85
same,"Plant response rating, Bermudagrass",[10]; [22],90
same,"Plant response rating, Bermudagrass",[10]; [15],98
same,"Plant response rating, Bermudagrass",[10]; [16],98
same,"Plant response rating, Bermudagrass",[10]; [17],100
same,"Plant response rating, Bermudagrass",[10]; [18],100
Cc1nn(-c2ccc(C(F)(F)F)c(F)c2)nc1Oc1ccnc(C(F)(F)F)c1 [Compound 148],"Plant response rating, Goosegrass",[1]; [12],15
same,"Plant response rating, Goosegrass",[1]; [13],25
same,"Plant response rating, Goosegrass",[1]; [22],40
same,"Plant response rating, Goosegrass",[1]; [24],90
same,"Plant response rating, Goosegrass",[1]; [25],95
same,"Plant response rating, Goosegrass",[1]; [17],98
same,"Plant response rating, Goosegrass",[1]; [18],100
same,"Plant response rating, Windgrass",[2]; [19],60
same,"Plant response rating, Windgrass",[2]; [20],80
same,"Plant response rating, Windgrass",[2]; [21],98
same,"Plant response rating, Windgrass","[2]; 250 g ai/ha, scale 0 to 100",100
same,"Plant response rating, Cupgrass, Woolly",[3]; [11],55
same,"Plant response rating, Cupgrass, Woolly",[3]; [12],55
same,"Plant response rating, Cupgrass, Woolly",[3]; [13],65
same,"Plant response rating, Cupgrass, Woolly",[3]; [22],75
same,"Plant response rating, Cupgrass, Woolly",[3]; [24],50
same,"Plant response rating, Cupgrass, Woolly",[3]; [25],90
same,"Plant response rating, Cupgrass, Woolly",[3]; [17],95
same,"Plant response rating, Cupgrass, Woolly",[3]; [18],98
same,"Plant response rating, Surinam Grass",[4]; [11],20
same,"Plant response rating, Surinam Grass",[4]; [12],20
same,"Plant response rating, Surinam Grass",[4]; [13],25
same,"Plant response rating, Surinam Grass",[4]; [22],30
same,"Plant response rating, Surinam Grass",[4]; [24],60
same,"Plant response rating, Surinam Grass",[4]; [25],75
same,"Plant response rating, Surinam Grass",[4]; [17],75
same,"Plant response rating, Surinam Grass",[4]; [18],100
same,"Plant response rating, Bromegrass, Downy",[5]; [11],45
same,"Plant response rating, Bromegrass, Downy",[5]; [12],55
same,"Plant response rating, Bromegrass, Downy",[5]; [13],60
same,"Plant response rating, Bromegrass, Downy",[5]; [22],65
same,"Plant response rating, Bromegrass, Downy",[5]; [24],5
same,"Plant response rating, Bromegrass, Downy",[5]; [25],40
same,"Plant response rating, Bromegrass, Downy",[5]; [17],50
same,"Plant response rating, Bromegrass, Downy",[5]; [18],80
same,"Plant response rating, Sunflower","[6]; 31 g ai/ha, scale of 0 to 100, 0 is no effect, 100 is complete control",0
same,"Plant response rating, Sunflower","[6]; 62 g ai/ha, scale of 0 to 100, 0 is no effect, 100 is complete control",0
same,"Plant response rating, Sunflower",[6]; [21],10
same,"Plant response rating, Sunflower",[6]; [23],10
same,"Plant response rating, Cocklebur",[7]; [11],85
same,"Plant response rating, Cocklebur",[7]; [12],98
same,"Plant response rating, Cocklebur",[7]; [13],98
same,"Plant response rating, Cocklebur",[7]; [24],10
same,"Plant response rating, Deadnettle",[8]; [19],95
same,"Plant response rating, Deadnettle",[8]; [20],95
same,"Plant response rating, Deadnettle",[8]; [21],100
same,"Plant response rating, Deadnettle","[8]; 250 g ai/ha, scale 0 to 100",100
same,"Plant response rating, Canarygrass",[9]; [19],40
same,"Plant response rating, Canarygrass",[9]; [20],60
same,"Plant response rating, Canarygrass",[9]; [21],95
same,"Plant response rating, Canarygrass","[9]; 250 g ai/ha, scale 0 to 100",95
same,"Plant response rating, Bermudagrass",[10]; [11],10
same,"Plant response rating, Bermudagrass",[10]; [12],30
same,"Plant response rating, Bermudagrass",[10]; [13],50
same,"Plant response rating, Bermudagrass",[10]; [22],55
same,"Plant response rating, Bermudagrass",[10]; [24],98
same,"Plant response rating, Bermudagrass",[10]; [25],100
same,"Plant response rating, Bermudagrass",[10]; [17],100
same,"Plant response rating, Bermudagrass",[10]; [18],100
